The values below come from patent publication US7700592B2, “α2C adrenoreceptor agonists” (Schering Corporation, priority 2005, dated 2010).

Structures are written as SMILES.

This experiment deals with T1, α2C receptor (Homo sapiens, UniProt P18825).
T1 sequence (P18825 1-462): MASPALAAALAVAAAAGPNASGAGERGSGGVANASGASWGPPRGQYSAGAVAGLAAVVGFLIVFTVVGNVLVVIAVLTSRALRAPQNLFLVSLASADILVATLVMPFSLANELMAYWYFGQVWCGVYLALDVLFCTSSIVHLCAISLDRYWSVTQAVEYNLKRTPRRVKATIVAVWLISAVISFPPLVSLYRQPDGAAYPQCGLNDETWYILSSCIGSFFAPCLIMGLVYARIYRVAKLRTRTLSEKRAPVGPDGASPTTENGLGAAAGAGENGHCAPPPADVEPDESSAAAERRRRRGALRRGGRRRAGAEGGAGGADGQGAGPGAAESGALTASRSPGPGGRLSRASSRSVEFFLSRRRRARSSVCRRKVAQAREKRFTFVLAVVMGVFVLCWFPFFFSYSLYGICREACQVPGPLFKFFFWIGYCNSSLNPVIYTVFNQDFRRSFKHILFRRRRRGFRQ
Description: GTPγS assay, efficacy agonist activity (Emax) for α2C. The class given is biochemical. Conditions: active agonist = efficacy at α2C ≧30% Emax; functionally selective = additionally efficacy at α2A ≦30% Emax (GTPγS assay). From the text:
For the purposes of this present invention, a compound is defined to be an active agonist of the α2C receptor subtype if the compound's efficacy at the α2C receptor is ≧30% Emax (GTPγS assay). A compound is a functionally selective agonist of the α2C receptor subtype over the α2A receptor subtype if the compound's efficacy at the α2C receptor is ≧30% Emax (GTPγS assay) and its efficacy at the α2A receptor is ≦30% Emax (GTPγS assay).
Efficacy agonist activity values (Emax, GTPγS assay) for α2C were determined by following the general procedure detailed by Umland et al (“Receptor reserve analysis of the human α2c-adrenoceptor using [^35S]GTPγS and cAMP functional assays” European Journal of Pharmacology 2001, 411, 211-221). For the purposes of the present invention, a compound is defined to be an active agonist of the α2C receptor subtype if the compound's efficacy at the α2C receptor is ≧30% Emax (GTPγS assay). A compound is a functionally selective agonist of the α2C receptor subtype over the α2A receptor subtype if the compound's efficacy at the α2C receptor is […] Emax (GTPγS assay) and its efficacy at the α2A receptor is ≦30% Emax (GTPγS assay).
For `CCNC(=O)N(C)c1ccc2c(c1)N(Cc1c[nH]cn1)CCO2` [Compound 7], the “Efficacy agonist activity (Emax, GTPγS assay) for α2C: evaluated as active or functionally selective agonist” value is given as “active or functionally selective agonists of the α2C receptor subtype”.

For `O=C(Nc1ccc2c(c1)N(Cc1c[nH]cn1)CCO2)OCc1cccc(F)c1` [Compound 306], the “Efficacy agonist activity (Emax, GTPγS assay) for α2C: evaluated as active or functionally selective agonist” value was “active or functionally selective agonists of the α2C receptor subtype”.

Take `CCN(C(=O)OCc1ccnc(N)c1)c1ccc2c(c1)N(Cc1c[nH]cn1)CCO2` [Compound 63]: the “Efficacy agonist activity (Emax, GTPγS assay) for α2C: evaluated as active or functionally selective agonist” value is listed as “active or functionally selective agonists of the α2C receptor subtype”.

On to `CCCOC(=O)N(CC)c1ccc2c(c1)N(Cc1c[nH]cn1)CCO2` [Compound 264], for which the “Efficacy agonist activity (Emax, GTPγS assay) for α2C: evaluated as active or functionally selective agonist” value was “active or functionally selective agonists of the α2C receptor subtype”.

In the case of `COC(=O)Cc1ccc2c(c1)N(Cc1c[nH]cn1)CCO2` [Compound 114], the “Efficacy agonist activity (Emax, GTPγS assay) for α2C: evaluated as active or functionally selective agonist” value is “active or functionally selective agonists of the α2C receptor subtype”.

Consider `O=C(Nc1ccc2c(c1)N(Cc1c[nH]cn1)CCO2)OCCOc1ccccc1` [Compound 304], for which the “Efficacy agonist activity (Emax, GTPγS assay) for α2C: evaluated as active or functionally selective agonist” value is given as “active or functionally selective agonists of the α2C receptor subtype”.

On to `CNC(=O)N(C)c1ccc2c(c1)N(Cc1c[nH]cn1)CCS2` [Compound 144], for which the “Efficacy agonist activity (Emax, GTPγS assay) for α2C: evaluated as active or functionally selective agonist” value is reported as “active or functionally selective agonists of the α2C receptor subtype”.

Regarding `CS(=O)(=O)CCOC(=O)Nc1ccc2c(c1)N(Cc1c[nH]cn1)CCO2` [Compound 250], the “Efficacy agonist activity (Emax, GTPγS assay) for α2C: evaluated as active or functionally selective agonist” value is “active or functionally selective agonists of the α2C receptor subtype”.

For the molecule `O=C(Nc1ccc2c(c1)N(Cc1c[nH]cn1)CCO2)OCc1ccc(F)cc1` [Compound 305], the “Efficacy agonist activity (Emax, GTPγS assay) for α2C: evaluated as active or functionally selective agonist” value is “active or functionally selective agonists of the α2C receptor subtype”.

Turning to `CCOC(=O)N(CC)c1ccc2c(c1)N(Cc1c[nH]cn1)CCO2` [Compound 159], the “Efficacy agonist activity (Emax, GTPγS assay) for α2C: evaluated as active or functionally selective agonist” value is “active or functionally selective agonists of the α2C receptor subtype”.

`COC(=O)Nc1ccc2c(c1)N(C(C#N)c1c[nH]cn1)CCO2` (centres unmarked) [Compound 171]: the “Efficacy agonist activity (Emax, GTPγS assay) for α2C: evaluated as active or functionally selective agonist” value is “active or functionally selective agonists of the α2C receptor subtype”.

`Nc1ccc2c(c1)N(Cc1c[nH]cn1)CCO2` [Compound 3E]: the “Efficacy agonist activity (Emax, GTPγS assay) for α2C: evaluated as active or functionally selective agonist” value is reported as “active or functionally selective agonists of the α2C receptor subtype”.

In the case of `CCN(C(=O)CCOC)c1ccc2c(c1)N(Cc1c[nH]cn1)CCO2` [Compound 164], the “Efficacy agonist activity (Emax, GTPγS assay) for α2C: evaluated as active or functionally selective agonist” value is given as “active or functionally selective agonists of the α2C receptor subtype”.

`CN1CCN(Cc2c[nH]cn2)c2ccccc21` [Compound 26]: the “Efficacy agonist activity (Emax, GTPγS assay) for α2C: evaluated as active or functionally selective agonist” value was “active or functionally selective agonists of the α2C receptor subtype”.

On to `CCCCOC(=O)N(CC)c1ccc2c(c1)N(Cc1c[nH]cn1)CCO2` [Compound 265], for which the “Efficacy agonist activity (Emax, GTPγS assay) for α2C: evaluated as active or functionally selective agonist” value is recorded as “active or functionally selective agonists of the α2C receptor subtype”.

For the molecule `Fc1cc(Br)cc2c1OCCN2Cc1c[nH]cn1` [Compound 124], the “Efficacy agonist activity (Emax, GTPγS assay) for α2C: evaluated as active or functionally selective agonist” value was “active or functionally selective agonists of the α2C receptor subtype”.

Take `CCN(C(=O)CCCc1ccccc1)c1ccc2c(c1)N(Cc1c[nH]cn1)CCO2` [Compound 167]: the “Efficacy agonist activity (Emax, GTPγS assay) for α2C: evaluated as active or functionally selective agonist” value is on record as “active or functionally selective agonists of the α2C receptor subtype”.

For the molecule `CCN(C(=O)n1ccnc1)c1ccc2c(c1)N(Cc1c[nH]cn1)CCO2` [Compound 64A], the “Efficacy agonist activity (Emax, GTPγS assay) for α2C: evaluated as active or functionally selective agonist” value is listed as “active or functionally selective agonists of the α2C receptor subtype”.

As to `c1ccc2c(c1)SCCN2Cc1c[nH]cn1` [Compound 25B], the “Efficacy agonist activity (Emax, GTPγS assay) for α2C: evaluated as active or functionally selective agonist” value was “active or functionally selective agonists of the α2C receptor subtype”.

Consider `COC(=O)Nc1ccc2c(c1)N(Cc1c[nH]cn1)CCCO2` [Compound 28], for which the “Efficacy agonist activity (Emax, GTPγS assay) for α2C: evaluated as active or functionally selective agonist” value is “active or functionally selective agonists of the α2C receptor subtype”.

On to `COC(=O)N(C)c1ccc2c(c1)N(Cc1c[nH]cn1)CCO2` [Compound 6E], for which the “Efficacy agonist activity (Emax, GTPγS assay) for α2C: evaluated as active or functionally selective agonist” value is listed as “active or functionally selective agonists of the α2C receptor subtype”.

As for `CCN(C(=O)OCc1cccnc1)c1ccc2c(c1)N(Cc1c[nH]cn1)CCO2` [Compound 275], the “Efficacy agonist activity (Emax, GTPγS assay) for α2C: evaluated as active or functionally selective agonist” value is “active or functionally selective agonists of the α2C receptor subtype”.

Take `O=C(Nc1ccc2c(c1)N(Cc1c[nH]cn1)CCO2)OCc1cccnc1` [Compound 318]: the “Efficacy agonist activity (Emax, GTPγS assay) for α2C: evaluated as active or functionally selective agonist” value is listed as “active or functionally selective agonists of the α2C receptor subtype”.

For `Brc1ccc2c(n1)N(Cc1c[nH]cn1)CCO2` [Compound 54], the “Efficacy agonist activity (Emax, GTPγS assay) for α2C: evaluated as active or functionally selective agonist” value is given as “active or functionally selective agonists of the α2C receptor subtype”.

On to `CC#CCOC(=O)N(C)c1ccc2c(c1)N(Cc1c[nH]cn1)CCO2` [Compound 262], for which the “Efficacy agonist activity (Emax, GTPγS assay) for α2C: evaluated as active or functionally selective agonist” value is reported as “active or functionally selective agonists of the α2C receptor subtype”.

With `CCCOC(=O)Nc1ccc2c(c1)N(Cc1c[nH]cn1)CCO2` [Compound 271], the “Efficacy agonist activity (Emax, GTPγS assay) for α2C: evaluated as active or functionally selective agonist” value is “active or functionally selective agonists of the α2C receptor subtype”.

On to `CCN(c1ccc2c(c1)N(Cc1c[nH]cn1)CCO2)c1cnccn1` [Compound 329], for which the “Efficacy agonist activity (Emax, GTPγS assay) for α2C: evaluated as active or functionally selective agonist” value is “active or functionally selective agonists of the α2C receptor subtype”.

As for `CN(C)S(=O)(=O)Nc1ccc2c(c1)N(Cc1c[nH]cn1)CCS2` [Compound 142], the “Efficacy agonist activity (Emax, GTPγS assay) for α2C: evaluated as active or functionally selective agonist” value is reported as “active or functionally selective agonists of the α2C receptor subtype”.

Turning to `CCN(C(=O)COC)c1ccc2c(c1)N(Cc1c[nH]cn1)CCO2` [Compound 163], the “Efficacy agonist activity (Emax, GTPγS assay) for α2C: evaluated as active or functionally selective agonist” value is recorded as “active or functionally selective agonists of the α2C receptor subtype”.

For `O=C(Cc1ccc2c(c1)N(Cc1c[nH]cn1)CCO2)NCc1ccccc1` [Compound 30], the “Efficacy agonist activity (Emax, GTPγS assay) for α2C: evaluated as active or functionally selective agonist” value was “active or functionally selective agonists of the α2C receptor subtype”.

As to `CCN(C(=O)NC)c1ccc2c(c1)N(Cc1c[nH]cn1)CCO2` [Compound 38], the “Efficacy agonist activity (Emax, GTPγS assay) for α2C: evaluated as active or functionally selective agonist” value was “active or functionally selective agonists of the α2C receptor subtype”.

With `O=C(Nc1ccc2c(c1)N(Cc1c[nH]cn1)CCO2)OCc1ccnc(Cl)c1` [Compound 314], the “Efficacy agonist activity (Emax, GTPγS assay) for α2C: evaluated as active or functionally selective agonist” value was “active or functionally selective agonists of the α2C receptor subtype”.

Turning to `COC(=O)N(C)c1cc(C)c2c(c1)N(Cc1c[nH]cn1)CCO2` [Compound 240], the “Efficacy agonist activity (Emax, GTPγS assay) for α2C: evaluated as active or functionally selective agonist” value is recorded as “active or functionally selective agonists of the α2C receptor subtype”.

Consider `O=CNc1cc(F)c2c(c1)N(Cc1c[nH]cn1)CCO2` [Compound 132], for which the “Efficacy agonist activity (Emax, GTPγS assay) for α2C: evaluated as active or functionally selective agonist” value was “active or functionally selective agonists of the α2C receptor subtype”.

Turning to `COC(=O)Nc1cc(O)c2c(c1)N(Cc1c[nH]cn1)CCO2` [Compound 57], the “Efficacy agonist activity (Emax, GTPγS assay) for α2C: evaluated as active or functionally selective agonist” value is on record as “active or functionally selective agonists of the α2C receptor subtype”.

`CCN(C(=O)OCc1cnc(N)nc1)c1ccc2c(c1)N(Cc1c[nH]cn1)CCO2` [Compound 281]: the “Efficacy agonist activity (Emax, GTPγS assay) for α2C: evaluated as active or functionally selective agonist” value is recorded as “active or functionally selective agonists of the α2C receptor subtype”.

Take `C=CCS(=O)(=O)Nc1ccc2c(c1)N(Cc1c[nH]cn1)CCO2` [Compound 266]: the “Efficacy agonist activity (Emax, GTPγS assay) for α2C: evaluated as active or functionally selective agonist” value is reported as “active or functionally selective agonists of the α2C receptor subtype”.

Take `O=[N+]([O-])c1ccc2c(n1)N(Cc1c[nH]cn1)CCO2` [Compound 22]: the “Efficacy agonist activity (Emax, GTPγS assay) for α2C: evaluated as active or functionally selective agonist” value is “active or functionally selective agonists of the α2C receptor subtype”.
